Tests used:
[1] = test system: C57BL/6J mice; experiment: Oral glucose tolerance test; type: in vivo; settings: 6 h fasted male C57BL/6J mice, incremental AUC vs vehicle; for % reduction AUC glucose excursion at 100mg/kg: 100 mg/kg oral gavage 30 min before 3g/kg oral glucose; for % reduction AUC glucose excursion: Sitagliptin at 1mg/kg, 3g/kg oral glucose
Procedure: (§1) 8-10 week old male C57BL/6J mice (Harlan) were maintained on regular chow diet from Harlan (2018 Teklad Global). On the day of the experiment mice were fasted for 6 hours, then randomized into groups (n=10-15) to receive the tested GPR120 agonist at doses ranging from 100mg/kg or the vehicle (1% CMC, 2% TWEEN 80). Compounds were delivered orally via gavage at 10mL/kg. Blood glucose levels were measured by glucometer (Ascensia Elite XL, Bayer) at time -30 minutes before administration of compound. Blood glucose was measured again after 30 minutes (at time 0), and then the mice were dosed orally with 3g/kg glucose at 10mL/kg. Blood glucose measurements were taken 20, 40, 60, 90 and 120 minutes after glucose administration, by glucometer (Ascensia Elite XL, Bayer).
(§2) Glucose levels were plotted against time, and the incremental area under the curve (AUC) of the glucose excursion was determined from time 0 using Graphpad Prism 5.01. Outliers were excluded using Tukey's box plot outlier test, and statistical significance of differences in AUC of compound treatment compared to vehicle was determined by non-parametric Kruskal-Wallis test with Dunn's post test.
Tables 2 and 3 below show the mean percentage inhibition of the glucose excursion for the fifteen animals tested in each group. The compounds were tested at 100 mg/kg and the levels of blood glucose were determined in the presence and absence of the tested compounds. The percentage of glucose reduction is reported. The tested compounds were selected as examples from the exemplified compounds. […]

[2] = biological target: T1, human GPR120 (Homo sapiens, UniProt Q5NUL3); experiment: Intracellular Ca2+ assay in human GPR120 stable cell line (FLIPR Calcium 4 dye, Flexstation); type: cell-based; settings: for activity at 5 µM: HEK293, % activity at 5 µM compared to the maximal activity of GW9508 at 6.7 µM (=100%), read-out: %Activity (GW9508 Reference Compound); for activity at 5 µM / activity at 2.5 µM: HEK293 cells co-expressing Gqi5; for activity at 2.5 µM: HEK293, % activity at 2.5 µM compared to the maximal activity of the compound of Example 25 at 2.5 µM (=100%), read-out: % Activity (Ex. 25 Reference Compound)
T1 construct: host or cells: HEK293 cells co-expressing Gqi5
T1 sequence (Q5NUL3 1-361): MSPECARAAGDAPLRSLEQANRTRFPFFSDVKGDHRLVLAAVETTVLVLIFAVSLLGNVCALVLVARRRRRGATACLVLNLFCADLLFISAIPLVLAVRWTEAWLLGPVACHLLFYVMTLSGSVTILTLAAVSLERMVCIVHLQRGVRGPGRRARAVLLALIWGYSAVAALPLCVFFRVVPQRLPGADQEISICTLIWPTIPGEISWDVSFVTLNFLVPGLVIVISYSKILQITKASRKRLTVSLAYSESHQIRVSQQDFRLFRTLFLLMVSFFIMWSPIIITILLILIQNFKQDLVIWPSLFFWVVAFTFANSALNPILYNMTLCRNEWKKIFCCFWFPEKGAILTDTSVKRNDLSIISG

[3] = test system: C57BL/6J mice; experiment: Intra peritoneal glucose tolerance test (IPGTT); type: in vivo; settings: Mus musculus, 2 h; 30 mg/kg oral gavage 30 min before 2g/kg glucose intra peritoneally; overnight fasted male C57BL/6J mice; incremental AUC of glucose excursion vs vehicle; read-out: % reduction IPGTT at 30mg/kg
Procedure: as §1, with “day before” for “day of”, “fasted overnight,” for “fasted for 6 hours,”, “dosed intra peritoneally” for “dosed orally”, “with 2g/kg” for “with 3g/kg”
as §2
The compounds were tested at 30 mg/kg and the levels of blood glucose were determined in the presence and absence of the tested compounds. The percentage of glucose reduction is reported. The tested compounds were selected as Examples from the exemplified compounds. […]

Compound	activity at 2.5 µM [2]	inhibition in vivo at 30 mg/kg [3]	also measured
CC1(C)Cc2cc(Cl)cc(COc3ccc4c(c3)CCC4CC(=O)O)c2O1 (stereo not drawn) [Example 36, 2-(5-((5-chloro-2,2-dimethyl-2,3-dihydrobenzofuran-7-yl)methoxy)-2,3-dihydro-1H-inden-1-yl)acetic acid]			% reduction AUC glucose excursion at 100mg/kg ([1]; Table 3): 33.6%; activity at 5 µM [2]: 123%
CC1(C)Cc2cc(F)cc(COc3ccc(C4CC4C(=O)O)cc3)c2O1 (racemic) [Example 131 (racemic), 2-(4-((5-fluoro-2,2-dimethyl-2,3-dihydrobenzofuran-7-yl)methoxy)phenyl) cyclopropanecarboxylic acid]		23.1%	
CC(Cc1ccc(OCc2cc(Cl)cc3c2OC(C)(C)C3)c(C(F)(F)F)c1)C(=O)O (stereo not drawn) [Example 9, 3-(4-((5-chloro-2,2-dimethyl-2,3-dihydrobenzofuran-7-yl)methoxy)-3-(trifluoromethyl)phenyl)-2-methylpropanoic acid]		19.8%	activity at 5 µM [2]: 113%
N[C@@H](CC(=O)N1CCn2c(nnc2C(F)(F)F)C1)Cc1cc(F)c(F)cc1F [Sitagliptin, sitagliptin, reference compound]			% reduction AUC glucose excursion ([1]; Table 2): 58.6%; % reduction AUC glucose excursion ([1]; Table 3): 48.6%
CCOc1cc(OCc2cc(F)cc3c2OC(C)(C)C3)ccc1CCC(=O)O [Example 268, 3-(2-ethoxy-4-((5-fluoro-2,2-dimethyl-2,3-dihydrobenzofuran-7-yl)methoxy)phenyl)propanoic acid]		23%	
C[C@@H](Cc1ccc(OCc2cc(Cl)cc3c2OC(C)(C)C3)c(F)c1)C(=O)O [Example 142, (S)-3-(4-((5-chloro-2,2-dimethyl-2,3-dihydrobenzofuran-7-yl)methoxy)-3-fluorophenyl)-2-methylpropanoic acid]		36.2%	
CC1(C)Cc2cc(Cl)cc(COc3ccc(CCC(=O)O)c4c3CCC4)c2O1 [Example 64, 3-(7-((5-chloro-2,2-dimethyl-2,3-dihydrobenzofuran-7-yl)methoxy)-2,3-dihydro-1H-inden-4-yl)propanoic acid]		24.9%	
CC1(C)Cc2cc(F)cc(COc3ccc(CCC(=O)O)cc3)c2O1 [Example 132, 3-(4-((5-fluoro-2,2-dimethyl-2,3-dihydrobenzofuran-7-yl)methoxy)phenyl)propanoic acid]		6.5%	
CC(Cc1ccc(OCc2cc(Cl)cc3c2OC(C)(C)C3)cc1)C(=O)O (stereo not drawn) [Example 13]			% reduction AUC glucose excursion at 100mg/kg ([1]; Table 2): 61.9%
CC1Cc2cccc(COc3c(F)cc(CCC(=O)O)cc3F)c2O1 (stereo not drawn) [Example 20]			activity at 5 µM [2]: 138%
CC(C)Oc1cc(OCc2cc(Cl)cc3c2OC(C)(C)C3)ccc1CCC(=O)O [Example 116, 3-(4-((5-chloro-2,2-dimethyl-2,3-dihydrobenzofuran-7-yl)methoxy)-2-isopropoxyphenyl)propanoic acid]	146%		

Further lines, with some results ahead:

activity at 2.5 µM [2]	Compound	inhibition in vivo at 30 mg/kg [3]	also measured
151%	CCc1cc(OCc2cc(F)cc3c2OC(C)(C)C3)ccc1CCC(=O)O [Example 134, 3-(2-ethyl-4-((5-fluoro-2,2-dimethyl-2,3-dihydrobenzofuran-7-yl)methoxy)phenyl)propanoic acid]	30.2%	
110%	CC(Cc1ccc(OCc2cc(Cl)cc3c2OC(C)(C)C3=O)c(F)c1)C(=O)O (stereo not drawn) [Example 77, 3-(4-((5-chloro-2,2-dimethyl-3-oxo-2,3-dihydrobenzofuran-7-yl)methoxy)-3-fluorophenyl)-2-methylpropanoic acid]	10.4%	
141%	C[C@H](Cc1ccc(OCc2cc(F)cc3c2OC(C)(C)C3)cc1)C(=O)O [Example 65, (R)-3-(4-((5-fluoro-2,2-dimethyl-2,3-dihydrobenzofuran-7-yl)methoxy)phenyl)-2-methylpropanoic acid]	22.2%	
142%	Cc1c(CCC(=O)O)ccc(OCc2cc(Cl)cc3c2OC(C)(C)C3)c1C [Example 209, 3-(4-((5-chloro-2,2-dimethyl-2,3-dihydrobenzofuran-7-yl)methoxy)-2,3-dimethylphenyl)propanoic acid]	43.6%	
143%	C[C@H](Cc1ccc(OCc2cc(Cl)cc3c2OC(C)(C)C3)c(F)c1)C(=O)O [Example 141, (R)-3-(4-((5-chloro-2,2-dimethyl-2,3-dihydrobenzofuran-7-yl)methoxy)-3-fluorophenyl)-2-methylpropanoic acid]	30.6%	
106%	CC1(C)Cc2cc(F)cc(COc3ccc4c(c3)CC[C@@H]4CC(=O)O)c2O1 [Example 178, (R)-2-(5-((5-fluoro-2,2-dimethyl-2,3-dihydrobenzofuran-7-yl)methoxy)-2,3-dihydro-1H-inden-1-yl)acetic acid]	16.3%	
130%	COc1cc(OCc2cc(F)cc3c2OC(C)(C)C3)ccc1CCC(=O)O [Example 50, 3-(4-((5-fluoro-2,2-dimethyl-2,3-dihydrobenzofuran-7-yl)methoxy)-2-methoxyphenyl)propanoic acid]	26.2%	
152%	CC(C)Oc1cc(OCc2cc(F)cc3c2OC(C)(C)C3)ccc1CCC(=O)O [Example 115, 3-(4-((5-fluoro-2,2-dimethyl-2,3-dihydrobenzofuran-7-yl)methoxy)-2-isopropoxyphenyl)propanoic acid]		
86.2%	CC(Cc1ccc(OCc2cc(Cl)cc3c2OC(C)(C)C3O)c(F)c1)C(=O)O (stereo not drawn) [Example 80, 3-(4-((5-chloro-3-hydroxy-2,2-dimethyl-2,3-dihydrobenzofuran-7-yl)methoxy)-3-fluorophenyl)-2-methylpropanoic acid]		EC50 ([2]; eight concentrations from 0.00001 to 20 µM, changes (Max-Min) of fluorescence intensity): 1 to 10 µM
147%	Cc1c(CCC(=O)O)ccc(OCc2cc(F)cc3c2OC(C)(C)C3)c1C [Example 208, 3-(4-((5-fluoro-2,2-dimethyl-2,3-dihydrobenzofuran-7-yl)methoxy)-2,3-dimethylphenyl)propanoic acid]	41.7%	
115%	CCCc1cc(OCc2cc(Cl)cc3c2OC(C)(C)C3)c(F)cc1CCC(=O)O [Example 73, 3-(4-((5-chloro-2,2-dimethyl-2,3-dihydrobenzofuran-7-yl)methoxy)-5-fluoro-2-propylphenyl)propanoic acid]		
75.9%	CC(Cc1ccc(OCc2cc(-n3cnnn3)cc3c2OC(C)(C)C3)cc1)C(=O)O (stereo not drawn) [Example 90, 3-(4-((2,2-dimethyl-5-(1H-tetrazol-1-yl)-2,3-dihydrobenzofuran-7-yl)methoxy)phenyl)-2-methylpropanoic acid]		
47%	CC(=O)NCCOC(=O)C(C)Cc1ccc(OCc2cc(Cl)cc3c2OC(C)(C)C3)c(C(F)(F)F)c1 (stereo not drawn) [Example 126, 2-acetamidoethyl 3-(4-((5-chloro-2,2-dimethyl-2,3-dihydrobenzofuran-7-yl)methoxy)-3-(trifluoromethyl)phenyl)-2-methylpropanoate]		
